Reference: the supplement of paper PMC10307832

Tests used:
Assay in all cases: relative viability (nuclei count vs DMSO), 5 days (fraction); higher = more cells survive
[1] = compound: NC1(c2ccc(-c3nc4ccn5c(=O)[nH]nc5c4cc3-c3ccccc3)cc2)CCC1 [MK-2206] + Cc1cc(Nc2cc(N3CCN(C)CC3)nc(Sc3ccc(NC(=O)C4CC4)cc3)n2)n[nH]1 [Tozasertib] (partner 0.1 µM)
Method in brief: (§1)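 Lung cancer cell lines in 1536-well plates were dosed by pin tool the day after seeding, either with one drug alone or with a fixed anchor-drug dose plus five library-drug doses (not always all listed) in √10 steps. After 5 days, cells were fixed and their nuclei stained in one step (final 0.05% Triton X-100, 1% formaldehyde, 1 ug/ml Hoechst), then counted on 4× images. Relative viability is the nuclei count in treated wells divided by that in vehicle wells. Values are medians of duplicate plates.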

[2] = compound: NC1(c2ccc(-c3nc4ccn5c(=O)[nH]nc5c4cc3-c3ccccc3)cc2)CCC1 [MK-2206] + CS(=O)(=O)CCNCc1ccc(-c2ccc3ncnc(Nc4ccc(OCc5cccc(F)c5)c(Cl)c4)c3c2)o1 [Lapatinib] (partner 2 µM)
Method in brief: as §1

[3] = compound: CS(=O)(=O)N1CCN(Cc2cc3nc(-c4cccc5[nH]ncc45)nc(N4CCOCC4)c3s2)CC1 [Pictilisib] + N=C(N)NC(=N)NCCc1ccccc1 [Phenformin] (partner 250 µM)
Method in brief: as §1

[4] = compound: NC1(c2ccc(-c3nc4ccn5c(=O)[nH]nc5c4cc3-c3ccccc3)cc2)CCC1 [MK-2206]
Method in brief: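 Five library-drug doses, separated by factors of √10, were pinned into 1536-well plates holding lung cancer cell lines after an overnight stay at 37 °C. Cells were fixed, permeabilised and Hoechst-stained in one step after 5 days without medium change, then imaged at 4×. Viability compares treated-well with vehicle-well nuclei, counted in MetaXpress, as a median across plates. Passing plates had control CV below 25% and at least one doubling.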

[5] = compound: CS(=O)(=O)N1CCN(Cc2cc3nc(-c4cccc5[nH]ncc45)nc(N4CCOCC4)c3s2)CC1 [Pictilisib] + NC(=O)Nc1cc(-c2cccc(F)c2)sc1C(=O)N[C@H]1CCCNC1 [AZD7762] (partner 0.2 µM)
Method in brief: as §1

Cell Line | relative viability ([1]; first compound 0.01 µM) | relative viability ([1]; first compound 0.03162 µM) | relative viability ([1]; first compound 0.3162 µM) | relative viability ([1]; first compound 1 µM) | relative viability ([2]; first compound 0.01 µM) | relative viability ([2]; first compound 0.03162 µM) | relative viability ([2]; first compound 0.3162 µM) | relative viability ([2]; first compound 1 µM) | relative viability ([3]; first compound 0.02 µM) | relative viability ([3]; first compound 0.06325 µM) | relative viability ([3]; first compound 0.6325 µM) | relative viability ([3]; first compound 2 µM) | relative viability ([4]; 0.01 µM) | relative viability ([4]; 0.03162 µM) | relative viability ([4]; 0.3162 µM) | relative viability ([4]; 1 µM) | relative viability ([5]; first compound 0.02 µM) | relative viability ([5]; first compound 0.06325 µM) | relative viability ([5]; first compound 0.6325 µM) | relative viability ([5]; first compound 2 µM)
NCI-H520 | 0.405 | 0.543 | 0.254 | 0.367 | 0.85 | 0.874 | 0.415 | 0.238 | 0.613 | 0.516 | 0.19 | 0.2 | 0.992 | 0.871 | 0.553 | 0.331 |  |  |  | 
NCI-H522 | 0.593 | 0.518 | 0.62 | 0.513 |  |  |  |  | 0.749 | 0.676 | 0.613 | 0.603 | 0.916 | 1.01 | 0.885 | 0.696 | 0.967 | 0.865 | 0.673 | 0.571
NCI-H661 | 0.377 | 0.354 | 0.373 | 0.364 | 0.422 | 0.581 | 0.503 | 0.51 | 0.302 | 0.282 | 0.269 | 0.216 | 0.997 | 1.02 | 1.03 | 1.01 |  |  |  | 
NCI-H1299 |  |  |  |  | 0.963 | 0.946 | 1 | 1.02 |  |  |  |  | 1.02 | 1.02 | 1.04 | 1.01 |  |  |  | 
NCI-H1563 |  |  |  |  | 0.843 | 0.911 | 0.783 | 0.711 | 0.663 | 0.692 | 0.56 | 0.501 | 0.925 | 0.975 | 0.885 | 0.764 |  |  |  | 
NCI-H1623 | 0.458 | 0.394 | 0.456 | 0.44 |  |  |  |  | 0.646 | 0.61 | 0.54 | 0.274 | 0.957 | 1.07 | 0.946 | 0.914 |  |  |  | 
NCI-H1648 | 0.508 | 0.689 | 0.657 | 0.504 |  |  |  |  |  |  |  |  | 0.873 | 1.06 | 1.06 | 1.05 | 0.777 | 0.735 | 0.56 | 0.316
NCI-H1650 | 0.364 | 0.377 | 0.408 | 0.346 | 0.685 | 0.768 | 0.687 | 0.784 | 0.492 | 0.318 | 0.247 | 0.176 | 0.854 | 1.01 | 0.883 | 0.946 |  |  |  | 
NCI-H1703 |  |  |  |  | 1.24 | 0.959 | 0.71 | 0.571 |  |  |  |  | 0.985 | 0.868 | 0.825 | 0.784 | 0.148 | 0.175 | 0.104 | 0.119
NCI-H1792 |  |  |  |  | 0.84 | 0.983 | 0.909 | 0.92 | 0.343 | 0.257 | 0.128 | 0.124 | 0.941 | 0.869 | 0.971 | 0.677 | 0.631 | 0.575 | 0.339 | 0.109
NCI-H2009 | 0.657 | 0.674 | 0.677 | 0.639 | 0.825 | 1.01 | 0.936 | 0.986 | 0.501 | 0.504 | 0.438 | 0.365 | 0.97 | 1.04 | 1.02 | 0.993 |  |  |  | 
NCI-H2023 | 0.345 | 0.347 | 0.239 | 0.197 | 0.827 | 0.818 | 0.708 | 0.492 | 0.43 | 0.376 | 0.275 | 0.169 | 0.972 | 0.946 | 0.757 | 0.605 |  |  |  | 
NCI-H2228 | 0.388 | 0.235 | 0.221 | 0.11 | 1.12 | 1.01 | 0.641 | 0.373 | 0.335 | 0.38 | 0.18 | 0.141 | 0.871 | 0.845 | 0.658 | 0.517 |  |  |  | 
NCI-H2342 | 0.608 | 0.535 | 0.452 | 0.402 |  |  |  |  | 0.581 | 0.586 | 0.472 | 0.355 | 1.05 | 0.959 | 0.892 | 0.815 | 0.444 | 0.515 | 0.34 | 0.414
SK-LU-1 | 0.212 | 0.334 | 0.376 | 0.291 | 0.91 | 0.861 | 0.822 | 0.967 | 0.648 | 0.509 | 0.393 | 0.308 | 1.09 | 1.05 | 1.1 | 0.944 |  |  |  | 
SK-MES-1 | 0.813 | 0.847 | 0.885 | 0.794 | 0.461 | 0.452 | 0.429 | 0.38 | 0.692 | 0.686 | 0.621 | 0.558 | 0.959 | 1.02 | 0.954 | 0.887 |  |  |  | 
SW 900 | 0.561 | 0.531 | 0.569 | 0.698 |  |  |  |  | 0.617 | 0.554 | 0.417 | 0.191 | 0.862 | 0.731 | 0.866 | 0.629 | 0.747 | 0.623 | 0.431 | 0.352
SW 1573 | 0.242 | 0.152 | 0.175 | 0.127 | 0.88 | 1.15 | 0.987 | 0.982 | 0.387 | 0.318 | 0.215 | 0.166 | 0.997 | 1.03 | 0.773 | 0.782 |  |  |  | 
